From patent US20240209028A1, “CNP COMPOUNDS” (priority 2022, published 2024) come the findings set out here.

Data set [1] is described as follows: PK after i.v. and s.c. administration to Göttingen minipig. The settings on record: female, Göttingen, minipig, in vivo. As for the experimental part:
The purpose of this study was to investigate pharmacokinetic and pharmacodynamic properties after intravenous (i.v.) and subcutaneous (s.c.) administration to Gottingen Minipig and domestic LYD pig, and to estimate bioavailability after s.c. dosing. Quantitative plasma analysis of CNP and cGMP levels were performed as described in
Animals and dosing: The pharmacokinetic and pharmacodynamic studies in Gottingen Minipig or domestic LYD pig were conducted at CRO Minerva Imaging or Novo Nordisk A/S, respectively. CNP compounds were dosed to normal female 1) Gottingen minipigs 6-12 months of age with an average weight of 22 kg or 2) domestic LYD pigs 4-5 months of age with and average weight of 80 kg. At least one week prior to dosing, permanent central venous catheters were implanted for blood sampling and intravenous (i.v.) dosing. For subcutaneous (s.c.) dosing, the pigs were ultrasound scanned and the optimal injection area laterally on the neck marked by a permanent tattoo. An insulin pen (NovoPen Echo or NovoPen 4) and insulin needle (NovoFine 32G/4 mm or NovoTwist 32G/5 mm) were used for accurate deposition of the CNP formulations in the subcutaneous fat tissue with the needle perpendicular to the skin.
CNP compounds were formulated according to the principles in General Methods of Preparation—Method G and were either A) 8 mM sodium phosphate, 250 mM glycerol, pH 6.5, B) 5 mM sodium acetate, 250 mM glycerol, pH 4.0, C) 5 mM sodium acetate, 240 mM propylene glycol, pH=4.0, D) 8 mM sodium phosphate, 250 mM glycerol, pH 7.5 or E) 20 mM sodium phosphate, 223 mM propylene glycol, pH 6.0.
Intravenously, the CNP compounds were dosed at 30-60 nmol/kg to Minipig and 15-43 nmol/kg to domestic pig using formulations A-E. Subcutaneously, the CNP compounds were dosed at 55-62 nmol/kg to Minipig and 20-30 nmol/kg to domestic pig using formulations A-D.
Sampling: Blood samples of approximately 1 mL were collected pre dose and up to 14 days post dose into EDTA-coated tubes (8 mM) for cGMP and CNP compound analysis by LC-MS. In few instances, cGMP was only analysed up to 48 hours post dose after intravenous dosing in domestic LYD pig. The blood samples were kept on wet ice for maximum 30 minutes until centrifugation for 10 minutes at 4° C. and minimum 1500G, and the plasma samples were stored at −20° C. until analysis.
Plasma concentration-time profiles were analyzed by non-compartmental PK analysis using Phoenix WinNonlin 8.1, Pharsight Inc., Mountain View, CA, USA. Calculation of the area under the plasma concentration-time curve (AUC) was based on the “linear up log down” method, and uniform weighting was used for estimation of the terminal rate constant (λz). S.c. bioavailability (F) was calculated as the dose-normalized AUC (AUC/dose) after s.c. administration divided by the AUC/dose after i.v. administration. […]

Another data set has as its target neprilysin (NEP) (Homo sapiens, UniProt P08473). Kind of data set: In vitro neprilysin stability. As to conditions: recombinant human neprilysin (rhNEP), pH 7.4.
Data set [2] can be described thus: Accelerated chemical stability (RP-UPLC recovery and LCMS degradation pattern, 37° C.). Format: physicochemical. On the set-up: Isomers TZ / Isomers 2 W / Loss of 18 amu TZ / Loss of 18 amu 2 W / Fragments TZ / Fragments 2 W / Fragments 1 W / Fragments 3 W / Fragments 4 W / Fragments 5 W / Fragments 6 W / Others 1 W / Others 3 W / Others 4 W / Others 5 W / Others 6 W / Isomers 1 W / Isomers 3 W / Isomers 4 W / Isomers 5 W / Isomers 6 W / Loss of 18 amu 1 W / Loss of 18 amu 3 W / Loss of 18 amu 4 W / Loss of 18 amu 5 W / Loss of 18 amu 6 W: unit not given here. The settings on record: LCMS, 5 mM sodium acetate, 250 mM glycerol, pH 4. As for the experimental part:
In order to determine the chemical stability of CNP compounds in formulation, samples of CNP compounds in buffer were exposed to accelerated chemical degradation by heating. The stability of a given peptide was assessed by measuring recovery of intact peptide by quantification by RP-UPLC. To assess the chemical degradation pattern samples were also analysed by LC-MS.
Sample preparation: Samples for the 2 week study were prepared according to the principles described in Example 5.
Samples for the 6 week study were prepared by dissolving lyophilized peptide in buffer (8 mM phosphate, 250 mM glycerol, pH 7.4) to a nominal peptide concentration of 5000 nmol/ml followed by pH adjustment with 0.1 N HCl to pH 6.5.
Incubation: For the 2 week study a time-zero (TZ) sample was pulled and stored at −18° C. and the remaining volume was incubated at 37° C. Samples were pulled and stored at −18° C. after 2 weeks of incubation. Frozen samples were thawed, diluted to about 200 nmol/mL and the extent of chemical degradation was determined using LCMS as described.
For the 6 week study a time-zero (TZ) sample was pulled and stored at −18° C. and the remaining volume was incubated at 37° C. Samples were pulled on a weekly basis and stored at −18° C. until the last sampling time point at 6 weeks. Frozen samples were thawed, diluted to about 200 nmol/mL and the extent of chemical degradation was determined using RP-UPLC and LCMS as described.
Analysis of peptide recovery by RP-UPLC: The RP-UPLC method was performed on a Waters ACQUITY H-CLASS UPLC system fitted with a PDA detector. Separation was carried out on an ACQUITY UPLC BEH C8 Column (130 Å, 1.7 μm, 2.1 mm×150 mm) operating at a column temperature of 50° C. with eluent A (19.59 mM NH4H2PO4 41.71 mM (NH4)2HPO4, pH 6.5 and MeCN 9:1 v:v) and eluent B (80% MeCN in water). UV-detection was carried out at 214 nm. The analysis was performed by injection of 3 μL of sample onto the column which was eluted with a 1-step linear gradient of eluents A and B from 27 to 30% B over 20 minutes followed by a wash at 95% B over 2 minutes followed by a re-equilibration phase for 7 minutes at a constant flow rate of 0.3 mL/min. This yielded an analysis time of 30 minutes per sample. The area of the peak corresponding to intact CNP compound was given on a percentage scale relative to the total peptide peak area.
Analysis of chemical degradation patterns by LCMS: Samples were analysed on a […] UPLC from Thermo Scientific, using a Waters Acquity C18 reversed-phase column, 300 Å, […] particles 1 mm×150 mm. The compounds were separated by a linear gradient of solvent B from 5% to 55% over 48 minutes, using solvent A: water, 0.1% formic acid with 0.02% TFA and solvent B: acetonitrile, 0.1% formic acid with 0.02% TFA. Mass spectra were acquired by a Q Exactive Plus hybrid Quadrupole-Orbitrap mass spectrometer, BioPharma option (Thermo Scientific) interfaced with H-ESI II ion source. Data acquisitions were performed with a m/z 500 to 2000 scan range and a resolution of 30000.
The data list was aggregated into a summed table of the compounds. The table headers were defined as follows: […]
Results: The results from LCMS analysis of a 2 week accelerated degradation study on several CNP compounds of the present invention are summarised in Table 12. The results from RP-UPLC and LCMS analysis of a 6 week accelerated degradation study on CNP compound 9482 (Chem. 137) is summarised in Table 13 and Table 14 respectively.

Starred links: 1 amine or outer side, 2 acyl side, 3 side chain; linkers in the order of their positions; H or OH if unused. Positions of bridges follow the written chain, without caps; N, C: chain ends. Residues, ends and D or L forms follow the SMILES beside them. *: point of attachment. C18 diacid = O=C(O)CCCCCCCCCCCCCCCCC(=O)*; γGlu = O=C(O)[C@H](CCC(=O)[*:2])N[*:1]

Chain of neprilysin (NEP) (P08473 whole entry, the tested form may be a part): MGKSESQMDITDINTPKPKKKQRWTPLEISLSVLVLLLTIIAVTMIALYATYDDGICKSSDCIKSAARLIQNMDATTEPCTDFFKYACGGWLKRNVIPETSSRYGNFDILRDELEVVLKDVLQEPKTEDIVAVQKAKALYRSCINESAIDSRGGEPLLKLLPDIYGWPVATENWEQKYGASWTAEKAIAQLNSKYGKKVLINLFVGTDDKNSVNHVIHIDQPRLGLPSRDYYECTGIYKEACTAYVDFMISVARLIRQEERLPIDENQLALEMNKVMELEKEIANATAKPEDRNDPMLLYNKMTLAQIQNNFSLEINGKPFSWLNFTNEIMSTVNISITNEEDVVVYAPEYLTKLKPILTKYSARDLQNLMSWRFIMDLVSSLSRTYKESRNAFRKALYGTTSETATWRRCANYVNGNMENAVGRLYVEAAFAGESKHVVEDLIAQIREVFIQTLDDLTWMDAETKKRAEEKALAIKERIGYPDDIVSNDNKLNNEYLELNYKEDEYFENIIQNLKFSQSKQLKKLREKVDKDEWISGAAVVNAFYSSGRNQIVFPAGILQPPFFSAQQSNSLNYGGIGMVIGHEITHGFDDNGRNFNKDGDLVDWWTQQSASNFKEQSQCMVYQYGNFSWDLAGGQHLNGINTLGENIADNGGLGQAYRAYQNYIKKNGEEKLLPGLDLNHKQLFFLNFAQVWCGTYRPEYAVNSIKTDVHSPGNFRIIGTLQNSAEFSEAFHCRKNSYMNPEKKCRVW
Description for neprilysin (NEP): Therefore, an in vitro neprilysin stability assay was set up to test the neprilysin mediated degradation of selected CNP compounds.
Procedure: In short, the assay buffer consisted of PBS-buffer (pH 7.4, ThermoFisher Scientific) with a final concentration of 0.005% v/v tween 20 (Sigma-Aldrich). Recombinant human neprilysin (rhNEP; R&D Systems) and the CNP compounds were dissolved in assay buffer. Native CNP22 (0065, Chem. 1) was included as positive control on each day of incubation. Initially, the CNP compound (the final concentration was 1000 nM) was pre-incubated in assay buffer for 10 min at 37° C. The assay was started by adding either rhNEP (final concentration was 2 μg protein per mL) or assay buffer (adsorption experiment) and the incubation was conducted at 37° C. […] The mixture was centrifuged at 13000 rpm at 4° C. for 20 minutes. After centrifugation, one volume of supernatant was mixed with one volume of Milli-Q water.
Analysis by LCMS: The mixture was analysed by LCMS using an Acquity UPLC Peptide CSH C18 analytical column from Waters (130 Å, 1.7 μm, 1*50 mm) operated at 60° C. A gradient elution was conducted with a Nexera UHPLC system (Shimadzu) using mobile phase A (consisting of Milli-Q water with 0.1% formic acid) and mobile phase B (consisting of acetonitrile with 0.1% formic acid). The flow was 0.3 ml/min. A zenoTOF 7600 mass spectrometer (Sciex) was used as detector and operated in positive electrospray ionisation mode. Data was recorded in full scan mode (m/z 300-1700).
Calibration curves were prepared in assay buffer and treated as study samples. These samples were used for calculating the concentration of the relevant CNP compound in the in vitro samples. Quality control samples were included. For at least 75% of the standards and QCs, the deviation between nominal and calculated concentration was below 20%.
All incubations were conducted in duplicate. Data was reported as percent remaining at 90 min (based on calculated concentrations) compared to the average concentration in the 0.5-minute time point samples.

By half-life is commonly meant how long it takes for the measured level to halve. The term bioavailability denotes the share of a dose that reaches the circulation, judged against a reference dose that is usually intravenous. In data set [1] (iv), `CC[C@H](C)[C@@H]1NC(=O)[C@H](CCCNC(=N)N)NC(=O)[C@H](CCC(=O)O)NC(=O)[C@H](CC(C)C)NC(=O)[C@@H]2CCCN2C(=O)[C@H](CC(C)C)NC(=O)CNC(=O)[C@H](Cc2ccccc2)NC(=O)[C@@H](NC(=O)CNC(=O)[C@H](CO)NC(=O)[C@H](CO)NC(=O)[C@H](CC(C)C)NC(=O)CNC(=O)[C@H](CCCCN)NC(=O)[C@H](CCCCN)NC(=O)[C@H](CCC(N)=O)NC(=O)[C@H](C)NC(=O)CNC(=O)[C@H](CCCCN)NC(=O)[C@H](Cc2ccc(O)cc2)NC(=O)[C@H](CCCCN)NC(=O)[C@H](CCCNC(=N)N)NC(=O)[C@H](C)NC(=O)[C@H](CCC(N)=O)NC(=O)[C@@H]2CCCN2C(=O)[C@H](Cc2c[nH]cn2)NC(=O)[C@H](CCC(=O)O)NC(=O)[C@H](CCC(N)=O)NC(=O)CC[C@H](NC(=O)CC[C@H](NC(=O)CC[C@H](NC(=O)CC[C@H](NC(=O)CCCCCCCCCCCCCCCCC(=O)O)C(=O)O)C(=O)O)C(=O)O)C(=O)O)CSSC[C@@H](C(=O)O)NC(=O)CNC(=O)[C@H](CC(C)C)NC(=O)CNC(=O)[C@H](CO)NC(=O)[C@H](CC(C)C)NC(=O)[C@H](CO)NC(=O)CNC1=O` [Compound 9483] ({C18 diacid-γGlu-γGlu-γGlu-γGlu}-QEHPQARKYKGAQKKGLSSGCFGLPLERIGSLSGLGC-OH; disulfide 21-37) gave a clearance of 1.04 mL/h/kg and a half-life of 88 h. In data set [1] (sc), this compound gave a bioavailability of 44% and a half-life of 75 h. In addition, the amount remaining at 1.5 h, 1000 nM on neprilysin (NEP) amounted to 106%. Moreover, in data set [2] (2 weeks at 37° C.), the “Fragments 2 W” value came out at 0, the “Isomers 2 W” value stood at 0, the “Loss of 18 amu 2 W” value is 0 and the Others 2 W turned out to be 0.6%. Besides, in data set [2] (time zero), the “Fragments TZ” value is 0, the “Isomers TZ” value stood at 0, the “Loss of 18 amu TZ” value is recorded as 0 and the Others TZ is 0.2%.
